Measured values from patent US11186610B2, “Crystal of glutathione trisulfide dihydrate and method for producing same” (KYOWA HAKKO BIO CO., LTD., priority 2016, dated 2021).

Assay: Hygroscopicity / storage stability: weight change on storage at 40° C. and 75% relative humidity
Type: physicochemical
Details: for Weight change with the elapse of time (in words): storage 0-4 hours at 40° C.
Description: 1 g of the crystal of glutathione trisulfide dihydrate produced in Example 2 was dissolved in water, and the volume was made up to 100 mL. The aqueous solution was filtered with a 0.45 μm of filter and then lyophilized to obtain a whitish transparent powder.
Subsequently, hygroscopicity of the obtained non-crystalline amorphous form of glutathione trisulfide and the crystal of glutathione trisulfide dihydrate produced in Example 2 was compared.
About 100 mg of each sample was weighed with a precise balance and then filled in a glass container, and after storage in THE051A (manufactured by Advantec Toyo Kaisha, Ltd.) under conditions of 40° C. and 75% relative humidity, the sample was weighed again to calculate a weight change rate. The sample weight after each elapsed time was measured with respect to 100% weight at the start of test.

[1] = as compared with the non-crystalline amorphous form, 40° C.

SMILES | Hygroscopicity (in words) [1] | Storage stability (in words) [1] | Sample weight with respect to 100% weight at the start of test (elapsed time 0 hour, 40° C.) [%] | Sample weight with respect to 100% weight at the start of test (elapsed time 0.5 hour, 40° C.) [%] | Sample weight with respect to 100% weight at the start of test (elapsed time 1 hour, 40° C.) [%] | Sample weight with respect to 100% weight at the start of test (elapsed time 2 hours, 40° C.) [%] | Sample weight with respect to 100% weight at the start of test (elapsed time 4 hours, 40° C.) [%] | Weight change with the elapse of time (in words)
N[C@@H](CCC(=O)N[C@@H](CSSSC[C@H](NC(=O)CC[C@H](N)C(=O)O)C(=O)NCC(=O)O)C(=O)NCC(=O)O)C(=O)O.O.O [crystal of dehydrate, glutathione trisulfide dihydrate] | low hygroscopicity | excellent storage stability | 100.0 | 100.0 | 100.0 | 100.0 | 100.0 | almost not changed
N[C@@H](CCC(=O)N[C@@H](CSSSC[C@H](NC(=O)CC[C@H](N)C(=O)O)C(=O)NCC(=O)O)C(=O)NCC(=O)O)C(=O)O [non-crystalline amorphous form, glutathione trisulfide] |  |  | 100.0 | 106.7 | 107.7 | 108.7 | 108.7 | increases with the elapse of time
